According to patent publication US9695155B2, “Herbicidal substituted pyrimidinyloxy benzene compounds” (E. I. DU PONT DE NEMOURS AND COMPANY, priority 2013, dated 2017):

Columns and labels:
[1] = test system: rice; test: Test B flooded paddy test; format: in vivo, Oryza sativa; details: Flood, 250 g ai/ha; 0 to 100 scale where 0 is no effect and 100 is complete control
Method in brief: (§1)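 Flooded to 3 cm at the 2-leaf stage, pots received compound through the paddy water and were kept at that depth under greenhouse conditions. After 13–15 days, effect was rated by eye relative to controls, 0 = none and 100 = complete control.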

[2] = test system: morningglory; test: Test A preemergence; format: in vivo, Ipomoea spp.; details: for Morningglory plant response rating: 500 g ai/ha
Method in brief: (§2)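 Compounds in non-phytotoxic solvent with surfactant applied as soil spray preemergence, or postemergence to plants 2-10 cm at one- to two-leaf stage, in loam/sand. After approximately 10 days in greenhouse, injury rated visually versus untreated controls, 0 (no effect) to 100 (complete control).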

[3] = test system: giant foxtail; test: Test A postemergence; format: in vivo, Setaria faberii
Method in brief: as §2

[4] = test system: large (Lg) crabgrass; test: Test A postemergence; format: in vivo, Digitaria sanguinalis
Method in brief: as §2

[5] = test system: morningglory; test: Test A postemergence; format: in vivo, Ipomoea spp.
Method in brief: as §2

[6] = test system: corn; test: Test A preemergence; format: in vivo, Zea mays; details: for Corn plant response rating: 500 g ai/ha
Method in brief: as §2

[7] = test system: large (Lg) crabgrass; test: Test A preemergence; format: in vivo, Digitaria sanguinalis; details: for Crabgrass, Large plant response rating: 500 g ai/ha
Method in brief: as §2

[8] = test system: velvetleaf; test: Test A postemergence; format: in vivo, Abutilon theophrasti
Method in brief: as §2

[9] = test system: wheat; test: Test A postemergence; format: in vivo, Triticum aestivum
Method in brief: as §2

[10] = test system: sedge, umbrella; test: Test B flooded paddy test; format: in vivo, Cyperus difformis; details: Flood, 250 g ai/ha; 0 to 100 scale where 0 is no effect and 100 is complete control
Method in brief: as §1

[11] = test system: barnyardgrass; test: Test A preemergence; format: in vivo, Echinochloa crus-galli; details: for Barnyardgrass plant response rating: 500 g ai/ha
Method in brief: as §2

[12] = test system: wheat; test: Test A preemergence; format: in vivo, Triticum aestivum; details: for Wheat plant response rating: 500 g ai/ha
Method in brief: as §2

[13] = test system: barnyardgrass; test: Test B flooded paddy test; format: in vivo, Echinochloa crus-galli; details: Flood, 250 g ai/ha; 0 to 100 scale where 0 is no effect and 100 is complete control
Method in brief: as §1

[14] = test system: pigweed; test: Test A preemergence; format: in vivo, Amaranthus retroflexus; details: for Pigweed plant response rating: 500 g ai/ha
Method in brief: as §2

[15] = test system: barnyardgrass; test: Test A postemergence; format: in vivo, Echinochloa crus-galli
Method in brief: as §2

[16] = test system: velvetleaf; test: Test A preemergence; format: in vivo, Abutilon theophrasti; details: for Velvetleaf plant response rating: 500 g ai/ha
Method in brief: as §2

[17] = test system: giant foxtail; test: Test A preemergence; format: in vivo, Setaria faberii; details: for Foxtail, Giant plant response rating: 500 g ai/ha
Method in brief: as §2

[18] = test system: corn; test: Test A postemergence; format: in vivo, Zea mays
Method in brief: as §2

[19] = test system: Heteranthera limosa; test: Test B flooded paddy test; format: in vivo; details: Flood, 250 g ai/ha; 0 to 100 scale where 0 is no effect and 100 is complete control
Method in brief: as §1

[20] = test system: pigweed; test: Test A postemergence; format: in vivo, Amaranthus retroflexus
Method in brief: as §2

[21] = 0 to 100 scale where 0 is no effect and 100 is complete control
[22] = 125 g ai/ha, 0 to 100 scale, 0 no effect, 100 complete control
[23] = 500 g ai/ha, 0 to 100 scale where 0 is no effect and 100 is complete control
[24] = 125 g ai/ha, 0 to 100 scale where 0 is no effect and 100 is complete control
[25] = 0 to 100 scale, 0 no effect, 100 complete control, approx. 10 days
[26] = 500 g ai/ha, 0 to 100 scale, 0 no effect, 100 complete control

CNN=Cc1cccc(Oc2ncc(Cl)cn2)c1-n1cc(Br)cn1 [Compound 289]
10: Crabgrass, Large plant response rating [7, 21] | Plant response rating, Velvetleaf [8, 22] | Velvetleaf plant response rating [16, 21] | Foxtail, Giant plant response rating [17, 21] | Plant response rating, Corn [18, 23]
100: Pigweed plant response rating [14, 21] | Plant response rating, Pigweed [20, 22] | Plant response rating, Pigweed [20, 23]
50: Plant response rating, Morningglory [5, 23]
30: Plant response rating, Foxtail, Giant [3, 23]
20: Plant response rating, Crabgrass, Large [4, 23] | Plant response rating, Morningglory [5, 22] | Barnyardgrass plant response rating [11, 21] | Pigweed plant response rating (0 to 100 scale) ([14]; 125 g ai/ha) | Plant response rating, Barnyardgrass [15, 23]
40: Plant response rating, Velvetleaf [8, 23]
0: Plant response rating, Rice [1] | Morningglory plant response rating (0 to 100 scale) ([2]; 125 g ai/ha) | Morningglory plant response rating [2, 21] | Plant response rating, Foxtail, Giant [3, 22] | Plant response rating, Crabgrass, Large [4, 22] | Corn plant response rating (0 to 100 scale) ([6]; 125 g ai/ha) | Corn plant response rating [6, 21] | Crabgrass, Large plant response rating (0 to 100 scale) ([7]; 125 g ai/ha) | Plant response rating, Wheat [9, 22] | Plant response rating, Wheat [9, 23] | Plant response rating, Sedge, Umbrella [10] | Barnyardgrass plant response rating (0 to 100 scale, 0 is no effect, 100 is complete control) ([11]; 125 g ai/ha) | Wheat plant response rating (0 to 100 scale) ([12]; 125 g ai/ha) | Wheat plant response rating [12, 21] | Plant response rating, Barnyardgrass [13] | Plant response rating, Barnyardgrass [15, 22] | Velvetleaf plant response rating (0 to 100 scale) ([16]; 125 g ai/ha) | Foxtail, Giant plant response rating (0 to 100 scale) ([17]; 125 g ai/ha) | Plant response rating, Corn [18, 22] | Plant response rating, Ducksalad [19]

Clc1cnc(Oc2ccccc2-n2cc(Br)c(Br)n2)nc1 [Compound 19]
40: Plant response rating, Morningglory [5, 26] | Plant response rating, Ducksalad [19]
20: Plant response rating, Rice [1] | Plant response rating, Crabgrass, Large [4, 26] | Barnyardgrass plant response rating [11, 25] | Plant response rating, Barnyardgrass [15, 26] | Velvetleaf plant response rating [16, 25] | Plant response rating, Foxtail, Giant [17, 24]
30: Plant response rating, Foxtail, Giant [3, 26] | Plant response rating, Velvetleaf [8, 24] | Plant response rating, Sedge, Umbrella [10] | Plant response rating, Corn [18, 26] | Plant response rating, Pigweed [20, 24]
100: Pigweed plant response rating [14, 25]
60: Plant response rating, Velvetleaf [8, 26]
90: Crabgrass, Large plant response rating [7, 25] | Foxtail, Giant plant response rating [17, 25] | Plant response rating, Pigweed [20, 26]
0: Plant response rating, Morningglory [2, 24] | Morningglory plant response rating [2, 25] | Plant response rating, Foxtail, Giant [3, 24] | Plant response rating, Crabgrass, Large [4, 24] | Plant response rating, Morningglory [5, 24] | Plant response rating, Corn [6, 24] | Corn plant response rating [6, 25] | Plant response rating, Crabgrass, Large [7, 24] | Plant response rating, Wheat [9, 24] | Plant response rating, Wheat [9, 26] | Plant response rating, Barnyardgrass [11, 24] | Plant response rating, Wheat [12, 24] | Wheat plant response rating [12, 25] | Plant response rating, Barnyardgrass [13] | Plant response rating, Pigweed [14, 24] | Plant response rating, Barnyardgrass [15, 24] | Plant response rating, Velvetleaf [16, 24] | Plant response rating, Corn [18, 24]
